Data published in patent US20240425574A1, “ANTI-PDGF-B ANTIBODIES AND PHARMACEUTICAL COMPOSITION THEREOF” (Regeneron Pharmaceuticals, Inc., priority 2021, published 2024).
Like-named read-outs stand apart in the source and are kept apart here. Marks after values point to notes of the source that are not given here.

Legend:
monocrotaline rats [1] = test: 4 weeks Monocrotaline PAH rats, preventive treatment (Example 10 study 1); format: in vivo, rat
Protocol: Six to seven weeks old male Sprague Dawley rats were used. Rats were separated into treatment groups such that body weights were similar among different groups. […] Standard of care group was orally administered macitentan at 30 mg/kg daily for 28 days. At day one, rats were subcutaneously administered either 40 mg/kg of monocrotaline or 5 mL/kg of saline. By the end of day 28, right ventricular systolic pressure (RVSP) was measured by right heart catheterization and RV hypertrophy was calculated by Fulton index as the weight ratio of RV and (LV+septum). In study 2, rats were subcutaneously administered either 60 mg/kg of monocrotaline or 5 mL/kg of saline. […] Body weight change from day 0-35 were used for general toxicity assessment and animal mortality was calculated by day 35.
Rats were anesthetized with isoflurane and were kept at approximately 37° C. using a heated platform (Heated Hard Pad 1, Braintree Scientific) and circulating heated water pump (T/Pump Classic, Gaymar Industries). The neck area for each rat was prepared for surgery by depilating over the right common Carotid artery and right Jugular vein. An incision was made and the right Jugular vein was isolated with care as to not damage the Carotid artery and/or the Vagus nerve. A piece of 5-0 silk suture was placed under the isolated Jugular vein to allow for retraction of the vessel cranially, then a 23-gauge needle was used to introduce a hole into the Jugular vein. A pressure catheter (Micro-tip catheter transducer SPR-1000, Millar Instruments, Inc.) was inserted into the opening of the Jugular vein and advanced past the right atrium into the right ventricle. The catheter was connected to pressure/volume instrument (MPVS-300, Millar Instruments, Inc.) that measured heart rate as well as both diastolic and systolic right ventricular pressures. These parameters were digitally acquired using a data acquisition system (PowerLab 4/35, AD Instruments). LabChart Pro 7.0 software (AD Instruments) was used to analyze right ventricular pressures. Readings were quantified from a 60 second interval of the pressure tracing (following a 2 minute period of recording to allow for pressure stabilization). The parameters analyzed were right ventricular systolic pressures (RVSP), heart rate (HR) and rate of right ventricular pressure rise (dP/dt max).
After the in vivo hemodynamic measurements, animals were euthanized by exsanguinations under anesthesia and then RV free wall, left ventricle (LV) and septum tissue were harvested and weighted. RV hypertrophy was calculated by Fulton index as the weight ratio of RV and (LV+septum). Then, RV tissue was saved frozen (−80° C.) for biochemical analyses.

hypoxia/sugen PAH mice [2] = test: Hypoxia/Sugen PAH mice, therapeutic treatment (Study 1); format: in vivo, mouse; settings: dose mg/kg: H4H13145P 25, Macitentan 30, REGN2176 25
Protocol: For the first study, 14 to 16 weeks old male humanized PDGFRβ^hu-hu mice, (MAID #1639) were used. Mice were separated into treatment groups by weight such that starting body weights were similar among different groups. […] Mice in hypoxia chamber were given VEGF receptor inhibitor Sugen5146 at 20 mg/kg subcutaneously once a week for 6 weeks. The mice were administered antibodies starting on day 21 for 3 weeks as outlined in Table 11. […] Mice were anesthetized with isoflurane and were kept at approximately 37° C. using a heated platform (Heated Hard Pad 1, Braintree Scientific) and circulating heated water pump (T/Pump Classic, Gaymar Industries). The neck area for each mouse was prepared for surgery by depilating over the right common Carotid artery and right Jugular vein. An incision was made, and the right Jugular vein was isolated with care as to not damage the Carotid artery and/or the Vagus nerve. […] The catheter was connected to pressure/volume instrument (MPVS-300, Millar Instruments, Inc.) that measured heart rate as well as both diastolic and systolic right ventricular pressures. […] The parameters analyzed were right ventricular systolic pressures (RVSP), heart rate (HR) and rate of right ventricular pressure rise (dP/dt max). […] RV hypertrophy was calculated by Fulton index as the weight ratio of RV and (LV+septum). […]

hypoxia/sugen PAH mice [3] = format: in vivo, mouse; settings: Hypoxia/Sugen Mice - Therapeutic dose response; dose mg/kg: H4H13145P 1, Macitentan 30, REGN2176 25
Protocol: For the second study (Study 2), 12 to 14 weeks old male C57/BL mice, (Taconic) were used for the studies. Mice were separated into treatment groups by weight such that starting body weights were similar among different groups. […] Mice in hypoxia chamber were given VEGF receptor inhibitor Sugen5146 at 20 mg/kg subcutaneously once a week for 6 weeks. The mice were administered antibodies starting on day 21 for 3 weeks as outlined in Table 12. By the end of week 6, right ventricular systolic pressure (RVSP) was measured by right heart catheterization and RV hypertrophy was calculated by Fulton index as the weight ratio of RV and (LV+septum). […]
Mice were anesthetized with isoflurane and were kept at approximately 37° C. using a heated platform (Heated Hard Pad 1, Braintree Scientific) and circulating heated water pump (T/Pump Classic, Gaymar Industries). […] The catheter was connected to pressure/volume instrument (MPVS-300, Millar Instruments, Inc.) that measured heart rate as well as both diastolic and systolic right ventricular pressures. […] Readings were quantified from a 60 second interval of the pressure tracing (following a 2 minute period of recording to allow for pressure stabilization). The parameters analyzed were right ventricular systolic pressures (RVSP), heart rate (HR) and rate of right ventricular pressure rise (dP/dt max). […]

monocrotaline rats [4] = test: Study #2, 5 weeks Monocrotaline severe PAH rats survival (Example 19); format: in vivo, rat
Protocol: In order to evaluate the effect of two inhibitory anti-PDGF-B antibodies in the rat monocrotaline model of pulmonary arterial hypertension, 2 studies were performed: study #1 was performed on 4-week Monocrotaline PAH Rats with Preventive Drug Treatment; and study #2 was performed on 5-weeks Monocrotaline Severe PAH Rats Survival with Therapeutic Drug Treatment (Tables 26-27).
Six to seven weeks old male Sprague Dawley rats were used. Rats were separated into treatment groups such that body weights were similar among different groups. […] On day one, rats were subcutaneously administered either 40 mg/kg of monocrotaline or 5 mL/kg or saline as control. On day 28, right ventricular systolic pressure (RVSP) was measured by right heart catheterization and RV hypertrophy was calculated by Fulton index as the weight ratio of RV to (LV+septum). In study #2, rats were subcutaneously administered either 60 mg/kg of monocrotaline or 5 mL/kg of saline. […] Small molecule group was orally administered macitentan at 30 mg/kg daily. Body weight change from day 0-35 were used for general toxicity assessment and animal mortality and median survival time were calculated by day 35.

Human PDGF-AA = test: FLIPR calcium flux in PASMC (Example 17); format: cell-based; settings: 3 nM PDGF-AA constant
Protocol: (§1) Upon reaching 100% confluency within each well, PDGF driven calcium flux was assessed via the FLIPR® Calcium 5 Assay Kit on the FLIPR Tetra System (Molecular Devices) following the manufacturer's protocol. In brief, complete media was replaced with 50 μL assay media (DMEM-0.1% BSA-1× Penicillin/Streptomycin/L-Glutamine). The Calcium 5 dye was then reconstituted in the supplied buffer in the presence of probenecid. […] Human PDGF-AA, PDGF-BB and PDGF-DD serial dilutions and inhibitory constants were generated on separate dosing plates. A 0.5 nM concentration of PDGF-BB, 1 nM concentration of PDGF-DD and a 3 nM concentration of PDGF-AA were chosen as constants to assess antibody and small molecule inhibition. […] Antibodies were pre-incubated with PDGF proteins for 30 minutes before addition onto the cells via the FLIPR tetra system. […] These calcium traces were analyzed for their Max-Min values using the SoftMax Pro Software (Molecular Devices).

Human PDGF-DD = settings: read-out: IC50 Calcium Flux, PDGF-DD; PASMC; 1 nM PDGF-DD constant
Protocol: as §1

PDGF-AA = settings: read-out: IC50 Proliferation, PDGF-AA; PASMC; IncuCyte cell confluence at day 6
Protocol: (§2) For calcium flux and proliferation assays, primary Human Pulmonary Smooth Muscle Cells were seeded onto 96-well assay plates at a cell density of 10,000/well and 2,000/well respectively. The smooth muscle cells were cultured in supplier recommended smooth muscle media in a humidified incubator at 37° C. in 5% CO2.
(§3) Proliferation was assessed via the IncuCyte live cell imaging system (Essen BioScience). Following overnight plating, the complete media was replaced with serum free smooth muscle media supplemented with 0.1% BSA. […] Plates were imaged every 3 hours over the course of 7 days and proliferation was determined by measuring cell confluence in the well at day 6 via the IncuCyte Base Analysis software (Sartorius).

PDGF-DD = settings: read-out: IC50 Proliferation, PDGF-DD; PASMC; IncuCyte cell confluence at day 6
Protocol: as §2, §3

PDGF-BB [5] = molecular target: T1, PDGF-BB (Homo sapiens, UniProt P01127); test: FLIPR calcium flux in PASMC (Example 17); format: cell-based; set-up: purchased R&D Systems 220-GMP
Protocol: as §1

PDGF-BB [6] = molecular target: T1, PDGF-BB; test: IncuCyte proliferation of PASMC (Example 17); format: cell-based; set-up: purchased R&D Systems 220-GMP; settings: IncuCyte cell confluence at day 6
Protocol: as §2, §3

[7] = Monocrotaline Rat - Prevention, dose mg/kg: H4H13145P 25, Macitentan 30, Sotatercept 25
[8] = MCT 60 mg/kg rats, treatment from day 14, antibody SC twice per week, Macitentan 30 mg/kg daily gavage

T1 sequence (P01127 82-190 limits assumed): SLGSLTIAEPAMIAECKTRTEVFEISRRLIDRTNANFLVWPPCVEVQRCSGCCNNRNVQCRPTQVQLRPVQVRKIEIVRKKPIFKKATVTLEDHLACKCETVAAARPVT

With “Sotatercept: ACVRIIa-Fc, vessel remodeling comparator drug” the “Reduction in RVSP” value (monocrotaline rats [1]; [7]) was 14 mmHg.

With `CCCNS(=O)(=O)Nc1ncnc(OCCOc2ncc(Br)cn2)c1-c1ccc(Br)cc1` [Macitentan, reference compound] the “% reduction in RV hypertrophy” value (hypoxia/sugen PAH mice [2]) was “trend”, the “Reduction in RVSP” value (hypoxia/sugen PAH mice [2]) was 19-25 mmHg and the “% reduction in RV hypertrophy” value (hypoxia/sugen PAH mice [3]) was “trend”. For the same compound, the “Reduction in RVSP” value (hypoxia/sugen PAH mice [3]) was 19-25 mmHg, the “% reduction in RV hypertrophy” value (monocrotaline rats [1]; [7]) was “trend” and the “lessening of right ventricular hypertrophy (Fulton Index)” value (monocrotaline rats [1]; monocrotaline 40 mg/kg, antibody 25 mg/kg SC 2x/week, Macitentan 30 mg/kg P.O. daily, versus isotype control) was “failed to reduce”. The “right ventricular systolic pressure elevation” value (monocrotaline rats [1]; monocrotaline 40 mg/kg, antibody 25 mg/kg SC 2x/week, Macitentan 30 mg/kg P.O. daily, week 4) was “significantly reduced”, the “Death # by day 35” value (monocrotaline rats [4]; [8]) was 11 and the “Survival rate by day 35” value (monocrotaline rats [4]; [8]) was 0%*. For the same compound, the “median survival” value (monocrotaline rats [4]; [8]) was 20 days and the survival (monocrotaline rats [4]; monocrotaline 60 mg/kg, antibody 25 mg/kg 2 times a week from day 14, macitentan 30 mg/kg daily, day 35) was “failed to prolong survival”.

With `COc1ccc(-c2cncc(N[C@@H](C)c3cccc(NC(=O)c4cncc(C)c4)c3)n2)cc1OC` [Seralutinib] the IC50 (Human PDGF-AA) was 0.01 µM, the IC50 (Human PDGF-DD) was 0.027 µM and the IC50 (PDGF-AA) was 0.009 µM. The IC50 (PDGF-DD) was 0.006 µM, the IC50 (PDGF-BB [5]; PASMC, 0.5 nM PDGF-BB constant, read-out: IC50 Calcium Flux, PDGF-BB) was 0.01 µM and the inhibition in words (PDGF-BB [5]; PDGF-AA, PDGF-DD and PDGF-BB driven calcium flux and proliferation) was “fully inhibited”. The IC50 (PDGF-BB [5]; range over PDGF-AA, PDGF-DD, PDGF-BB driven calcium flux and proliferation, read-out: IC50 values) was 0.006 to 0.027 µM and the IC50 (PDGF-BB [6]) was 0.006 µM.

`Cc1ccc(NC(=O)c2ccc(CN3CCN(C)CC3)cc2)cc1Nc1nccc(-c2cccnc2)n1` [Imatinib] gave an IC50 (Human PDGF-AA) of 0.27 µM.
